Data: ChEMBL document CHEMBL1240466, “New substituted 4-arylaminoquinazolines as potent inhibitors of breast tumor cell lines: in vitro and docking experiments” (Eur J Med Chem, 2010)
Calls of active or inactive are those of the source.

Experiments:
Type in all cases: functional, cell-based
PC-3 = assay: Cytotoxicity against human PC3 cells by spectrophotometry
NCI/ADR-RES = assay: Cytotoxicity against human NCI/ADR-RES cells by spectrophotometry
K562 = assay: Cytotoxicity against human K562 cells by spectrophotometry
OVCAR-3 = assay: Cytotoxicity against human OVCAR-3 cells by spectrophotometry
NCI-H460 = assay: Cytotoxicity against human NCI-H460 cells by spectrophotometry
MCF7 = assay: Cytotoxicity against human MCF7 cells by spectrophotometry
UACC-62 = assay: Cytotoxicity against human UACC62 cells by spectrophotometry
HT-29 = assay: Cytotoxicity against human HT-29 cells by spectrophotometry

Measured: Activity

Cc1cccc(Nc2ncnc3cc4c(cc23)OCO4)c1
active: all assays above

c1ccc(Nc2ncnc3cc4c(cc23)OCO4)cc1
active: all assays above
